Test results published in US20070184047A1, “Nitrophenyls and related compounds and thimerosal for the inhibition of immune related cell or tissue destruction” (Canadian Blood Services, priority 2005, published 2007).

Experiments:
[1] = tested on: FcγR-mediated phagocytosis of anti-D-coated RBCs by monocyte-macrophages (Mφ); test: Monocyte monolayer assay (MMA): inhibition of phagocytosis of anti-D-sensitized RBCs; assay type: cell-based, human; details: for inhibition of phagocytosis over the test concentration range: 10^−4 down to 10^−9 mol per L
Excerpt: The test concentration of immunoglobulin (anti-D or IVIg) was chosen after titration of each immunoglobulin on its own to inhibit FcγR and phagocytosis of anti-D-coated RBCs using a monocyte monolayer assay (MMA) as previously described in Rampersad et al., supra and Foo et al., supra. […] The two controls used in these experiments were chemical alone and immunoglobulin alone. For each experiment, the controls and a mixture of chemical and immunoglobulin in phosphate buffered saline (PBS) pH 7.4, were placed in separate tubes (Sarstedt) and gently rotated for 24 hours at room temperature. The solutions were then transferred to respective cellulose dialysis tubing membranes with a molecular size cut off of 12,000 daltons (Sigma-Aldrich) that had been cut to length and washed as per the manufacturer's directions by boiling in a solution containing one mmol/L ethylenediaminetetraacetic acid (EDTA) (BioShop) and 2% sodium bicarbonate (Fisher Scientific) in PBS. Dialysis was performed in large beakers of PBS for 5-7 days at 4° C. with daily changes of PBS.
Preparation of anti-D-sensitized R2R2 red blood cells (RBCs) has been previously described in Rampersad et al., supra and Foo et al., supra. Briefly, RBCs were resuspended in PBS to 5% concentration, mixed with an equal volume of human polyclonal anti-D (Immucor, Tex., Houston, USA) in PBS solution, and then incubated for 1 hour at 37° C. and 5% CO2. After which, the sensitized RBCs were washed four times in PBS and resuspended to 2.5% in PBS. […] The MMA was performed as previously described in Foo et al., supra, without modification.
A phagocytic index was calculated as described in Rampersad et al., supra; Foo et al., supra; and Branch et al., British Journal of Haematology, 1984; 56:19-29, as the unitless number of antibody-sensitized RBCs phagocytosed per 100 Mφ. Residual and phagocytosed RBCs were distinguished by relative differences in refracted light under phase-contrast microscopy. Percent inhibition was calculated as previously described^2 taking the phagocytic control index to be 100. […] Statistical significance of inhibition between treated and untreated Mφ were analysed using Student t-test and Analysis of Variance (ANOVA), and/or, General Linear Model (GLM) Analysis and Student-Newman-Keuls test. A p value of <0.05 was considered to be significant.
As previously described with minor modification, Rampersad et al., Transfusion, 2005; 45:384:93, an aliquot of R2R2 RBCs was removed from storage in Alsever's solution, Walker et al., American Association of Blood Banks, 11th ed., Bethesda, 1993, at 4° C. and washed three times in PBS without calcium or magnesium (Gibco/Invitrogen) at 2000 r.p.m. for 7 minutes (Sorvall RT 6000D centrifuge, Mandel Scientific Company Inc., Guelph, Ontario, Canada). The RBCs were resuspended in PBS to 5 percent concentration, mixed with an equal volume of human anti-D in PBS solution, and then incubated for 1 hour at 37° C. and 5 percent CO2 (Sanyo CO2 incubator), after which the sensitized RBCs were washed four times in PBS at 2000 r.p.m. for 7 minutes and resuspended to 2.5 percent in PBS.
As previously described with slight modification to improve the quality of the Mφ monolayer, Rampersad et al, supra, whole venous blood was drawn from donors into tubes (Vacutainer, ACD solution A, Becton Dickinson Vacutainer Systems, Franklin Lakes, N.J.) and mixed with an equal volume of PBS.

PBMCs = test: FACS annexin V-FITC/PI analysis for viable and apoptotic PBMCs; assay type: cell-based; details: for effect on PBMC viability or apoptosis: 10^−4 to 10^−9 mol per L, 1 hour; for necrotic cell counts: PBMCs
Excerpt: Fluorescence-activated cell sorting (FACS) analysis (flow cytometry) and a TACS annexin V-fluorescein isothiocyanate (FITC) apoptosis detection kit (R&D Systems, Minneapolis, Minn.) were used to determine if disulfide-containing compounds benzoylmethyl methyl disulfide and phenyl methyl disulfide exert effects on viability or apoptosis of PBMCs. Briefly, PBMCs were isolated from whole blood as previously outlined and treated with culture medium or chemical from 10^−4 to 10^−9 mol per L for 1 hour at 37° C. and 5 percent CO2. They were then washed three times in PBS and collected by centrifugation at 12,000 r.p.m. for 5 to 10 minutes before being incubated in culture medium for 2 hours. After washing the cells once in cold PBS, according to the manufacturer's instructions, cells were then incubated with annexin V-FITC incubation reagent for 15 minutes at room temperature to stain membrane exposed phosphatidylserine, indicating early programmed cell death or apoptosis. Cells were then stained with propidium iodide (PI), specific for nonviable cells, to identify late apoptotic cells. FACS was performed with two-color analysis on a flow cytometer (FACSCalibur E4795, Becton Dickinson, Mississauga, Ontario, Canada) calibrated with fluorescent beads (CaliBRITE, BD Biosciences, San Jose, Calif.) and computer software for data analyses (Cell Quest, BD Biosciences).

[2] = tested on: immune-mediated platelet destruction (anti-platelet antibody); test: Model of immune-mediated platelet destruction, treatment at day 2; assay type: in vivo, mice; details: single dose at day 2 instead of IVIg, anti-platelet antibody continued daily
Protocol: Referring now to FIGS. 4A through 4C, shown are the results using a model of immune-mediated platelet destruction wherein the anti-platelet antibody is administered on day 0 and daily thereafter. The platelet count fell abruptly after 24 hours (day 1) indicating platelets were destroyed after the antibody was recognized and bound to the platelets. […] In FIGS. 4B and 4C at day 2, instead of IVIg, two mice were administered a single dose of thimerosal or a nitrophenyl compound p-nitrophenyl methyl disulfide (G-B) (FIG. 4C).

[3] = tested on: immune-mediated platelet destruction (anti-platelet antibody); test: Model of immune-mediated platelet destruction, treatment prior to anti-platelet antibody; assay type: in vivo, mice; details: administered prior to anti-platelet antibody
Protocol: Referring to FIG. 5, unlike the model in FIG. 4A-4C, the treatment was administered prior to injecting the mice with the anti-platelet antibody.

| Molecule | inhibition of phagocytosis over the test concentration range [1] | inhibition of phagocytosis ([1]; 10^−4 mol per L) | effect on loss of platelets following anti-platelet antibody [3] | other results |
| --- | --- | --- | --- | --- |
| CC(O)c1ccccc1 (stereo not shown) [1-phenylethanol, reference compound] | None of these compounds were able to inhibit phagocytosis | – | – | – |
| O=C(CS)c1ccccc1 [benzoylmethyl mercaptan] | ineffective | – | – | – |
| CSSCC(=O)c1ccccc1 [benzoylmethyl methyl disulfide] | inhibited phagocytosis in a dose-dependent manner | 62% | – | effect on PBMC viability or apoptosis (PBMCs): do not significantly affect PBMC viability or apoptosis |
| O=[N+]([O-])c1ccccc1 [nitrobenzene, reference compound] | None of these compounds were able to inhibit phagocytosis | – | – | – |
| CSCc1ccc([N+](=O)[O-])cc1 [p-nitrobenzyl methyl sulfide] | did not inhibit phagocytosis | – | – | – |
| O=[N+]([O-])c1ccc(O)cc1 [p-nitrophenol, reference compound] | None of these compounds were able to inhibit phagocytosis | – | – | – |
| CSSc1ccc([N+](=O)[O-])cc1 [p-nitrophenyl methyl disulfide] | inhibited macrophage phagocytosis in vitro in a dose-dependent manner | 98.6% | little effect on the subsequent loss of platelets | inhibition of phagocytosis ([1]; 10^−7 mol per L): 29%; platelet count after treatment [2]: the platelet count began to rise |
| CSSc1ccccc1 [phenyl methyl disulfide] | inhibition of phagocytosis in a dose-dependent manner | 54% | – | effect on PBMC viability or apoptosis (PBMCs): do not significantly affect PBMC viability or apoptosis; necrotic cell counts (PBMCs; 10^−4 mol per L): 2.36%; necrotic cell counts (PBMCs; 10^−5 mol per L): 1.05% |
| C[CH2][Hg][S]c1ccccc1C(=O)[O-].[Na+] [thimerosal] | – | – | little effect on the subsequent loss of platelets | inhibition of phagocytosis ([1]; used alone at 10^−3M, undialyzed): 100%; inhibition of phagocytosis after dialysis ([1]; used alone at 10^−5M or 10^−3M, after dialysis): no longer inhibits phagocytosis after dialysis; inhibition of phagocytosis ([1]; used alone at 10^−5M, undialyzed): 100%; platelet count after treatment [2]: the platelet count began to rise |
| p-nitrophenylethanol | None of these compounds were able to inhibit phagocytosis | – | zero platelet loss | – |
